Patent US4665078A, “2-(3-amino-5-halo-2-pyridylalkylamino)-pyrimidones useful as histamine H1-antagonists” (Smith Kline & French Laboratories Limited, priority 1983, dated 1987)

Key:
histamine H1-receptor [1] = assay: inhibition of H1-agonist induced reduction of blood pressure in the anaesthetised cat; assay type: in vivo; settings: intravenous (femoral veins), 2-(2-aminoethyl)pyridine-induced reduction in blood pressure
Protocol: Cats of either sex weighing between 2 and 3 kg were starved overnight and anaesthetised with sodium pentabarbitone (60 mg/kg i.p.). The trachea was cannulated and blood pressure was measured in a femoral artery. The compound under investigation was administered by cannulae in the right and left femoral veins. Anaesthetic was administered as required into one brachial vein. Dose-response curves were constructed by administering a standard H1 -agonist, 2-(2-aminoethyl)pyridine in increasing dose from 10^-8 mol/kg to 10^-5 mol/kg. The 2-(2-aminoethyl)pyridine-induced reduction in blood pressure was measured. The effect of the antagonists can be quantified by displacement of the 2-(2-aminoethyl)pyridine dose-response curve expressed as a dose-ratio. The compounds of Examples 1 and 2 caused displacement of the dose-responsecurves with a dose-ratio of 10 at doses of 0.06 and 0.0058 micromole/kg respectively.

histamine H1-receptor [2] = target: T1, histamine H1-receptor (Cavia porcellus, UniProt P31389); assay: inhibition of histamine induced bronchoconstriction in anaesthetised guinea pigs; assay type: in vivo; settings: i.v., anaesthetised guinea pig, histamine curve 5 minutes after antagonist
T1 construct: an isolated portion of the guinea pig ileum is secured under tension; from tissue; host or cells: isolated guinea pig ileum
T1 sequence (P31389 whole entry): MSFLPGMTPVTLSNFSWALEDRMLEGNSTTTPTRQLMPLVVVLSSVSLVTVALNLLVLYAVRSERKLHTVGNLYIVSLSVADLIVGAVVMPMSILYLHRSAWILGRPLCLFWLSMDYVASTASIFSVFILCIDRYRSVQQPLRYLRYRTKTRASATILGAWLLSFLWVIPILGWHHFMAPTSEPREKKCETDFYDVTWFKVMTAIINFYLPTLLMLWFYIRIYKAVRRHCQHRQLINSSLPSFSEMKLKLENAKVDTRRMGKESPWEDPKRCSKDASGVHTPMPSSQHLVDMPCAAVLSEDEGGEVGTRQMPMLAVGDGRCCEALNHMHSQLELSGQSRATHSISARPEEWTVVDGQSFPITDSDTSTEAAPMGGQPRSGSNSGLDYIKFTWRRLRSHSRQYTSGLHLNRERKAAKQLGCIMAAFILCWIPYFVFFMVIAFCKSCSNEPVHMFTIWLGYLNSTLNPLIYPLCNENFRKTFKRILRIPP
Protocol: Guinea pigs of either sex are anesthetised by intraperitoneal injection of sodium pentobarbitone, 90 mg/kg. The trachea is cannulated. The animal is respired artificially with a fixed volume of air just adequate to inflate the lungs. The pressure needed to inflate the lungs is monitored from the respiratory system using a low pressure transducer. Intranvenous injection of histamine causes dose-dependent increases in the pressure to inflate the lungs reflecting the bronchoconstrictor action of histamine. Responses to histamine can be antagonised using histamine H1 -receptor antagonists.
Dose-response curves to histamine are established at 20, 40, 80, 160 and 320 nmols/kg. Antagonists are then administered by intravenous injection and 5 minutes later a new histamine dose-response curve is established increasing the doses of histamine as necessary. The effect of the antagonist can be quantified by the displacement, to the right, of the histamine dose-response curve, expressed as a dose-ratio. A series of doses of antagonists may be given to each animal allowing calculation of dose-ratios for each dose of antagonist. The compounds of Examples 1 and 2 hereafter cause displacement of histamine dose-response curves with a dose-ratio of 10 at doses of less than 0.8 micromole kg^-1 i.v.

histamine H1-receptor [3] = target: T1, histamine H1-receptor; assay: guinea pig ileum test (in vitro histamine H1-antagonist activity); settings: isolated guinea pig ileum, histamine-induced contraction, 8 min contact, 30° C.; read-out: pA2 value (converted)
Protocol: In this test an isolated portion of the guinea pig ileum is secured under tension (500 mg) between an anchorage and a transducer in a 10 ml tissue bath and immersed in magnesium free Tyrode solution with constant aeration at a temperature of 30° C. The output from the transducer is amplified. The amplified output is in turn fed to a flat bed recorder. Measured amounts of histamine are added to the tissue bath so that the histamine concentration increases step-wise until the force of the contraction reaches a maximum. The tissue bath is washed out and filled with fresh magnesium free Tyrode solution containing compound under test. The solution is left in contact with the tissue for 8 min. and measured amounts of histamine are added again until a maximum contraction is recorded. The assay is repeated with increasing concentrations of test compound and the dose of histamine giving 50% of maximum contraction is noted. A dose ratio (DR) was calculated by comparing the concentrations of histamine required to produce 50% maximum response in the absence and in the presence of the antagonist. A plot of Log DR-1 against Log D (the concentration of compound under test) is made and the point of intersection with the Log (DR-1) ordinate is taken as the measure of the activity (pA2 value).

histamine H2-receptor = target: T2, histamine H2-receptor (Cavia porcellus, UniProt P47747); assay: guinea pig atrium test (in vitro histamine H2-antagonist activity); settings: isolated guinea pig right atrium, histamine-induced rate of beating, 60 min contact, 37° C.; read-out: pA2 value (converted)
T2 construct: a spontaneously beating isolated portion of the guinea pig right atrium is secured under tension; from tissue; host or cells: isolated guinea pig right atrium
T2 sequence (P47747 whole entry): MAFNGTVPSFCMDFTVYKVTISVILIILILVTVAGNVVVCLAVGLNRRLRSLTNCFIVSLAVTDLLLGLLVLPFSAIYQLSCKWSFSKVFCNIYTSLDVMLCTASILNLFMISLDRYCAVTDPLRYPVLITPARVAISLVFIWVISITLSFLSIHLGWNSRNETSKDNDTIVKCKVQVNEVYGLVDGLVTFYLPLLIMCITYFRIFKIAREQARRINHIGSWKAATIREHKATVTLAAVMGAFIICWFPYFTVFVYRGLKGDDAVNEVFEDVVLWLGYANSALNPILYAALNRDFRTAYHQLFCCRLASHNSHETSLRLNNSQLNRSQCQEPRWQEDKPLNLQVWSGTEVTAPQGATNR
Protocol: In this test a spontaneously beating isolated portion of the guinea pig right atrium is secured under tension (300 mg) between an anchorage and a transducer in a 15 ml tissue bath and immersed in McEwens solution with constant aeration at a temperature of 37° C. The output from the transducer is amplified. Output is in turn fed to a flat bed recorder. Measured amounts of histamine are added to the tissue bath so that the histamine concentration increases step-wise until the rate of beating reaches a maximum. The tissue bath is washed out and filled with fresh McEwens solution containing compound under test. The solution is left in contact with the tissue for 60 min. and measured amounts of histamine are added again until a maximum rate is recorded. The assay is repeated with increasing concentrations of test compound and the dose of histamine giving 50% of maximum rate is noted. A dose ratio (DR) was calculated by comparing the concentrations of histamine required to produce 50% maximum response in the absence and in the presence of the antagonist. A plot of Log DR-1 against Log D (the concentration of compound under test) is made and the point of intersection with the Log (DR-1) ordinate is taken as the measure of the activity (pA2 value).

Structure (SMILES) | dose causing displacement of the 2-(2-aminoethyl)pyridine dose-response curve with a dose-ratio of 10 (histamine H1-receptor [1]) [µmol/kg] | dose causing displacement of histamine dose-response curves with a dose-ratio of 10 (histamine H1-receptor [2]) | Kb (histamine H1-receptor [3]) [nM] | Kb (histamine H2-receptor) [nM]
Cc1ccc(Cc2cnc(NCCCCc3ncc(Br)cc3C)[nH]c2=O)cn1 [2-[4-(5-bromo-3-methylpyrid-2-yl)butylamino]-5-(6-methylpyrid-3-ylmethyl)-4-pyrimidone, reference compound] | 0.215 | – | – | –
Cc1ccc(Cc2cnc(NCCCCc3ncc(Br)cc3N)[nH]c2=O)cn1 [Example 1, 2-[4-(5-bromo-3-aminopyrid-2-yl)butylamino]-5-(6-methylpyrid-3-ylmethyl) 4-pyrimidone] | 0.06 | less than 0.8 micromole kg^-1 | < 10 | > 1000
Nc1cc(Br)cnc1CCCCNc1ncc(Cc2cc[n+]([O-])cc2)c(=O)[nH]1 [Example 2, 2-[4-(5-bromo-3-aminopyrid-2yl)butylamino]-5-(N-oxopyrid-4-ylmethyl)-4-pyrimidone] | 0.0058 | less than 0.8 micromole kg^-1 | < 10 | > 1000
